Measurements: PubChem BioAssay AID330 (DTP/NCI, 2004)
“And” between values parts separate entries of the source, which are not always exact repeats. Equal entries are not always repeated. Toxic doses and inconclusive results are not listed. Rule for the calls: active = survival T/C of 150% or more; inactive = T/C below 125% in these data.

System: P388 leukemia ip, CD2F1 mice, survival T/C
Test: NCI In Vivo Anticancer Drug Screen. Data for tumor model P388 Leukemia (intraperitoneal) in CD2F1 (CDF1) mice
Settings: endpoint: median survival time, higher = longer survival
Outline: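 Mice carrying the transplanted tumor received test compound or vehicle. Survival was recorded in each group, and the value is the treated-group measurement divided by that of the vehicle-treated control group.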

[1] = dose: 25.0 mg/kg/injection, schedule: Q01DX009 (ip), vehicle: saline with Tween-80
[2] = dose: 50.0 mg/kg/injection, schedule: Q01DX009 (ip), vehicle: saline with Tween-80
[3] = dose: 50.0 mg/kg/injection, schedule: Q01DX009 (ip), vehicle: saline
[4] = dose: 100.0 mg/kg/injection, schedule: Q01DX009 (ip), vehicle: saline
[5] = dose: 200.0 mg/kg/injection, schedule: Q01DX009 (ip), vehicle: saline
[6] = dose: 50.0 mg/kg/injection, schedule: Q01DX005 (ip), vehicle: Klucel (hydroxypropylcellulose) (HPC)
[7] = dose: 100.0 mg/kg/injection, schedule: Q01DX005 (ip), vehicle: Klucel (hydroxypropylcellulose) (HPC)
[8] = dose: 200.0 mg/kg/injection, schedule: Q01DX005 (ip), vehicle: Klucel (hydroxypropylcellulose) (HPC)
[9] = dose: 60.0 mg/kg/injection, schedule: Q01DX005 (ip), vehicle: saline with Tween-80
[10] = dose: 120.0 mg/kg/injection, schedule: Q01DX005 (ip), vehicle: saline with Tween-80
[11] = dose: 100.0 mg/kg/injection, schedule: Q01DX009 (ip), vehicle: saline with Tween-80
[12] = dose: 200.0 mg/kg/injection, schedule: Q01DX009 (ip), vehicle: saline with Tween-80
[13] = dose: 50.0 mg/kg/injection, schedule: Q01DX005 (ip), vehicle: saline with Tween-80
[14] = dose: 100.0 mg/kg/injection, schedule: Q01DX005 (ip), vehicle: saline with Tween-80
[15] = dose: 200.0 mg/kg/injection, schedule: Q01DX005 (ip), vehicle: saline with Tween-80
[16] = dose: 50.0 mg/kg/injection, schedule: Q01DX009 (ip), vehicle: Klucel (hydroxypropylcellulose) (HPC)
[17] = dose: 100.0 mg/kg/injection, schedule: Q01DX009 (ip), vehicle: Klucel (hydroxypropylcellulose) (HPC)
[18] = dose: 200.0 mg/kg/injection, schedule: Q01DX009 (ip), vehicle: Klucel (hydroxypropylcellulose) (HPC)
[19] = dose: 50.0 mg/kg/injection, schedule: Q04DX003 (ip), vehicle: saline with Tween-80
[20] = dose: 100.0 mg/kg/injection, schedule: Q04DX003 (ip), vehicle: saline with Tween-80
[21] = dose: 200.0 mg/kg/injection, schedule: Q04DX003 (ip), vehicle: saline with Tween-80
[22] = dose: 25.0 mg/kg/injection, schedule: Q01DX009 (ip), vehicle: Klucel (hydroxypropylcellulose) (HPC)

Measured: T/C

O=C(NC1CCCCC1)ON1C(=O)C2C3C=CC(C3)C2C1=O (stereo not drawn)
inactive: dose: 3.12 mg/kg/injection, schedule: Q01DX009 (ip), vehicle: saline with Tween-80 101 % of control and 98 % of control | dose: 6.25 mg/kg/injection, schedule: Q01DX009 (ip), vehicle: saline with Tween-80 106 % of control and 110 % of control and 113 % of control | dose: 12.5 mg/kg/injection, schedule: Q01DX009 (ip), vehicle: saline with Tween-80 106 % of control and 110 % of control | [1] 113 % of control and 117 % of control and 98 % of control | [2] 119 % of control

O=C1NC(=S)N/C1=C/c1ccc2c(c1)CCC2
inactive: dose: 100.0 mg/kg/injection, schedule: Q01DX001 (ip), vehicle: saline with Tween-80 100 % of control | dose: 200.0 mg/kg/injection, schedule: Q01DX001 (ip), vehicle: saline with Tween-80 100 % of control | dose: 400.0 mg/kg/injection, schedule: Q01DX001 (ip), vehicle: saline with Tween-80 95 % of control

Cc1cc(Cl)ccc1N=Cc1cccs1
inactive: [3] 90 % of control | [4] 90 % of control | [5] 89 % of control

O=C(NC(Cc1ccc(I)cc1)C(=O)O)c1ccc(Br)cc1 (stereo not drawn)
inactive: dose: 12.5 mg/kg/injection, schedule: Q01DX005 (ip), vehicle: sodium bicarbonate 104 % of control | dose: 25.0 mg/kg/injection, schedule: Q01DX005 (ip), vehicle: sodium bicarbonate 100 % of control | [6] 98 % of control | dose: 50.0 mg/kg/injection, schedule: Q01DX005 (ip), vehicle: sodium bicarbonate 94 % of control | [7] 98 % of control | dose: 100.0 mg/kg/injection, schedule: Q01DX005 (ip), vehicle: sodium bicarbonate 90 % of control and 94 % of control | [8] 101 % of control

CN(C1=NC1(C)C)c1ccccc1
inactive: [3] 96 % of control | [4] 94 % of control | [5] 91 % of control

C=CC1(C)CCOC(=O)C1 (stereo not drawn)
inactive: [9] 94 % of control | [10] 97 % of control

CCN(CC)C(=O)C1(C)NS(=O)(=O)c2ccccc2C1=O (stereo not drawn)
inactive: [1] 106 % of control | [2] 98 % of control and 110 % of control and 96 % of control | [11] 98 % of control and 110 % of control and 97 % of control | [12] 95 % of control

NNC(=O)C1C2c3ccccc3C(c3ccccc32)C1C(=O)O (stereo not drawn)
inactive: [9] 99 % of control | [10] 101 % of control | dose: 240.0 mg/kg/injection, schedule: Q01DX005 (ip), vehicle: saline with Tween-80 103 % of control

CSc1ncc(/C(C)=N\N=C(N)N)c(C)n1
inactive: dose: 15.0 mg/kg/injection, schedule: Q01DX005 (ip), vehicle: saline 103 % of control and 97 % of control | dose: 30.0 mg/kg/injection, schedule: Q01DX005 (ip), vehicle: saline 93 % of control and 98 % of control | dose: 60.0 mg/kg/injection, schedule: Q01DX005 (ip), vehicle: saline 94 % of control and 97 % of control | dose: 120.0 mg/kg/injection, schedule: Q01DX005 (ip), vehicle: saline 99 % of control

COC(=O)c1c(C(=O)OC)c2c(C)nn3ccc1n23
inactive: dose: 25.0 mg/kg/injection, schedule: Q01DX005 (ip), vehicle: saline with Tween-80 96 % of control | [13] 96 % of control | [14] 98 % of control | [15] 93 % of control

O=C1N(c2cccc(F)c2)C(=O)N1c1cccc(F)c1
inactive: [2] 115 % of control | [11] 100 % of control | [12] 98 % of control

CC(C)C12CC(COCc3ccccc3)OC1=NC(=O)NC2=O (stereo not drawn)
inactive: [16] 112 % of control | [17] 103 % of control | [18] 94 % of control

OCC#C[C@@H]1CC[C@H]1C#CCO
inactive: [6] 100 % of control | [7] 103 % of control | [8] 103 % of control

CC(C)Cn1c(C(C)C)nc([N+](=O)[O-])c1Sc1ncn[nH]1
inactive: dose: 25.0 mg/kg/injection, schedule: Q01DX005 (ip), vehicle: Klucel (hydroxypropylcellulose) (HPC) 108 % of control | [6] 108 % of control and 118 % of control | [7] 123 % of control

CN(C)CCCCNc1ccc(NCCCCN(C)C)c2c1C(=O)c1c(O)ccc(O)c1C2=O
inactive: dose: 12.5 mg/kg/injection, schedule: Q01DX009 (ip), vehicle: saline 100 % of control | dose: 25.0 mg/kg/injection, schedule: Q01DX009 (ip), vehicle: saline 108 % of control | [3] 106 % of control

COc1ccc(C(c2c(O)c3ccccc3oc2=O)N2CCCC2)cc1 (stereo not drawn)
inactive: dose: 15.0 mg/kg/injection, schedule: Q01DX005 (ip), vehicle: saline with Tween-80 100 % of control | dose: 30.0 mg/kg/injection, schedule: Q01DX005 (ip), vehicle: saline with Tween-80 100 % of control | [9] 103 % of control and 97 % of control

CC1(C)COC(CC2CCCCC2)=N1
inactive: [2] 104 % of control | [19] 100 % of control | [11] 100 % of control | [20] 104 % of control | [21] 90 % of control

COc1cc(O)c(C(C)=O)c2c1C=CC(C)(C)O2
inactive: [13] 102 % of control | [14] 105 % of control | [15] 100 % of control

CCN(CC)CCSCCCN=c1c2ccc(Cl)cc2n(O)c2ccc(OC)nc12
inactive: dose: 50.0 mg/kg/injection, schedule: Q01DX009 (ip), vehicle: saline + alcohol 115 % of control | dose: 100.0 mg/kg/injection, schedule: Q01DX009 (ip), vehicle: saline + alcohol 112 % of control

CNc1c(C(N)=O)nnn1Cc1ccc(OC)cc1
inactive: dose: 100.0 mg/kg/injection, schedule: Q04DX002 (ip), vehicle: Klucel (hydroxypropylcellulose) (HPC) 100 % of control | dose: 200.0 mg/kg/injection, schedule: Q04DX002 (ip), vehicle: Klucel (hydroxypropylcellulose) (HPC) 100 % of control | dose: 400.0 mg/kg/injection, schedule: Q04DX002 (ip), vehicle: Klucel (hydroxypropylcellulose) (HPC) 103 % of control

O=C(NO)c1ccccc1
inactive: [22] 98 % of control | dose: 50.0 mg/kg/injection, schedule: Q01DX001 (ip), vehicle: saline 102 % of control | [16] 98 % of control | [2] 103 % of control | [19] 106 % of control | dose: 100.0 mg/kg/injection, schedule: Q01DX001 (ip), vehicle: saline 102 % of control | [17] 107 % of control | [20] 102 % of control | [18] 116 % of control | [12] 103 % of control | [21] 102 % of control | dose: 400.0 mg/kg/injection, schedule: Q01DX009 (ip), vehicle: Klucel (hydroxypropylcellulose) (HPC) 114 % of control | dose: 400.0 mg/kg/injection, schedule: Q04DX003 (ip), vehicle: saline with Tween-80 109 % of control

O=[N+]([O-])c1ccc(Sc2ncnc3c2ncn3C2OC(CO)C(O)C2O)c2nonc12 (stereo not drawn)
inactive: dose: 12.5 mg/kg/injection, schedule: Q01DX009 (ip), vehicle: suspension in saline 119 % of control | dose: 50.0 mg/kg/injection, schedule: Q01DX009 (ip), vehicle: suspension in saline 103 % of control and 122 % of control

CC12OC1(C)C1C(=O)OCC1C2=O (stereo not drawn)
inactive: [22] 105 % of control | [16] 96 % of control | [17] 97 % of control | [18] 117 % of control
